According to patent publication US10398751B2, “Pharmaceutical compositions of water soluble peptides with poor solubility in isotonic conditions and methods for their use” (STRONGBRIDGE IRELAND LIMITED, priority 2016, dated 2019):
Counter-ions that a name gives are not always drawn. Like-named read-outs stand apart in the source and are kept apart here.

What was measured:
[1] = tested on: human Carcinoid cell line; experiment: Chromogranin A release; type: cell-based
[2] = Emulsification of cottonseed oil and water for injection; type: physicochemical
Description: Based on its amphiphilic properties, veldoreotide acetate was evaluated by means of emulsion formulation. […] Thus, veldoreotide acetate may be considered a w/o ionic surfactant or hydrotrope with a hydrophilic lipophilic balance (HLB) of 6.
The samples were mixed using 25G syringe and vortexed at room temperature.
Veldoreotide was formulated as a water in oil emulsion using 80% (wt %) cottonseed oil, 20% (wt %) water for injection (WFI) and 1% (wt %) veldoreotide acetate. Specifically, 10 mg of veldoreotide acetate was dissolved in 200 uL WFI in a 5 mL glass vial, 800 mg of cottonseed oil was added and the resulting mixture was stirred under magnetic stirring at room temperature for 15 minutes at 1000 rpm. The emulsion was then viewed under the light microscope and stored under refrigeration. The resulting emulsion was stable and found to be injectable via 27G needle.

[3] = Pharmacokinetics of IR formulations in minipigs; type: in vivo; conditions: minipig, plasma, sc; for AUC(0-t) / Tmax: minipigs; for bioavailability: read-out: Minipigs absolute BA (F %)
[4] = Peptide content, encapsulation efficiency and residual additives of microspheres; type: physicochemical; conditions: Example 7 PLGA 50:50 (7-17 kDa) microspheres
Source text: These observations and conclusion are supported by the analysis of the residual HPB concentration in the MS formulations of HPB. Indeed, the analytical data (see below) confirms that the same ratio of HPB:PEP were maintained in the final MS of HPB and therefore verifying the conditions and data of Table 6.
Therefore, unlike the case of HPB, the effect of the DEX on the COR005 surface activity at the injection site seems to be negligible. The effect for the DEX is addressed in the SEM analysis section below.
Tables 19 and 20 summarize the peptide content and encapsulation efficiency (EE) of bulk samples of microspheres, measured by HPLC.
PLGA microspheres containing veldoreotide acetate were prepared. 500 mg of PLGA 50:50 (7-17 kDa) was dissolved in 5 mL dichloromethane oil phase). An aqueous solution contacting 50 mg of veldoreotide acetate in 1 ml of DDW prepared separately (inner aqueous phase). The first aqueous phase was emulsified into the oil phase (containing PLGA), using a high-speed homogenizer (Polytron) at 2-8° C. using different speeds and time durations to form water in oil primary emulsion. The primary emulsion was added (drop wise) into the 100 ml of external aqueous phase containing 1% PVA solution in PBS to form secondary emulsion. […]

human lymphocytes = experiment: Human peripheral blood lymphocytes proliferation assays; type: cell-based
[5] = Comparative surface tension of peptides in water for injection; type: physicochemical; conditions: 10 mg/ml in WFI
[6] = 0.1 mg/kg, IR, SC, 0.1 mg/Kg, DEX:PEP 5:1 saline
[7] = 0.1 mg/kg, IR, SC 0.1 mg/Kg, DEX:PEP 5:1 saline
[8] = 0.1 mg/kg, IR, SC 0.1 mg/Kg, Lactic acid buffer
[9] = 0.4 mg/kg, IR, SC 0.4 mg/Kg, DEX:PEP 5:1 saline
[10] = 0.4 mg/kg, IR, SC 0.4 mg/Kg, HPB:PEP 15:1 saline
[11] = 0.4 mg/kg, IR, SC 0.4 mg/Kg, Lactic acid buffer
[12] = 0.4 mg/kg, IR, SC, 0.4 mg/Kg, DEX:PEP 5:1 saline
[13] = 0.4 mg/kg, IR, SC, 0.4 mg/Kg, HPB:PEP 15:1 saline

C[C@@H](O)[C@@H]1NC(=O)[C@H](CCCCN)NC(=O)[C@@H](Cc2c[nH]c3ccccc23)NC(=O)[C@H](Cc2c[nH]c3ccccc23)NC(=O)[C@H](Cc2ccccc2)NC(=O)CCCNC(=O)CCCN(CC(N)=O)C(=O)[C@H](Cc2ccccc2)NC1=O [Veldoreotide Acetate, Cyclo(-γ-aminobutyryl-L-phenylalanyl-L-tryptophanyl-D-tryptophanyl-L-lysyl-L-threonyl-L-phenylalanyl-N-carbamoylmethyl-γ-aminobutyryl), acetate salt]
Chromogranin A release [1]: inhibits
hydrophilic lipophilic balance (HLB) ([2]; w/o ionic surfactant or hydrotrope): 6
Cmax [3, 6]: 53 ng/mL
AUC(0-t) [3, 7]: 53 ng·h/mL
Tmax [3, 7]: 60 min
AUC(0-t) [3, 8]: 26 ng·h/mL
Tmax [3, 8]: 30 min
Cmax ([3]; 0.1 mg/kg, pH 4, IR, Lactic acid buffer pH 4): 29 ng/mL
AUC(0-t) [3, 9]: 205 ng·h/mL
Tmax [3, 9]: 30 min
AUC(0-t) [3, 10]: 198 ng·h/mL
Tmax [3, 10]: 15 min
AUC(0-t) [3, 11]: 161 ng·h/mL
Tmax [3, 11]: 60 min
encapsulation efficiency (EE) % [4]: 77%
final drug load in microspheres [4]: 6 weight %
mitogenicity for human lymphocytes (human lymphocytes): non-mitogenic

C[C@@H](O)[C@@H]1NC(=O)[C@H](CCCCN)NC(=O)[C@@H](Cc2c[nH]c3ccccc23)NC(=O)[C@H](Cc2c[nH]c3ccccc23)NC(=O)[C@H](Cc2ccccc2)NC(=O)CCCNC(=O)CCCN(CC(N)=O)C(=O)[C@H](Cc2ccccc2)NC1=O [Veldoreotide, cyclo(-γ-aminobutyryl-L-phenylalanyl-L-tryptophanyl-D-tryptophanyl-L-lysyl-L-threonyl-L-phenylalanyl-N-carbamoylmethyl-γ-aminobutyryl)]
emulsification ([2]; 16.6 weight % cottonseed oil, 74.2 weight % WFI, 9.2 weight % peptide, room temperature): allowing an emulsion to form
Effect of reduced surface tension (%) ([5]; baseline WFI): −37%
Water surface tension (dyne/cm) ([5]; baseline WFI 52): 33 dyne/cm
bioavailability [3, 6]: 91%
bioavailability ([3]; 0.1 mg/kg, pH 4, IR, SC, 0.1 mg/Kg, Lactic acid buffer pH 4): 45%
Cmax [3, 12]: 238 ng/mL
bioavailability [3, 12]: 88.4%
Cmax [3, 13]: 255 ng/mL
bioavailability [3, 13]: 85.3%
bioavailability ([3]; 0.4 mg/kg, pH 4, IR, SC, 0.4 mg/Kg, Lactic acid buffer pH 4): 69%
Cmax ([3]; 0.4 mg/kg, pH 4, IR, Lactic acid buffer pH 4): 108 ng/mL
